# Key:
# Format in all cases: cell-based
# MDA-MB453 = assay: Cell proliferation assay (WST-1 and/or Alamar Blue), MDA-MB453; conditions: Homo sapiens, MDA-MB-453; MDA-MB453, metastatic breast carcinoma; 72 hours incubation
# Description: (§1) Compounds of the present invention were assayed for activity using a WST-1 cell proliferation assay and/or an Alamar Blue-based assay.
# (§2) The WST-1 cell proliferation assay employed was obtained from Chemicon International, Inc. of Temecula, Calif. Further information on assay materials and procedure is provided at www.chemicon.com. The WST-1 cell proliferation assay relies on the formation of a formazan from a tetrazolium salt by cellular enzymes, whereby the amount of the obtained formazan dye as an indicator of viability is directly proportional to the number of metabolically active cells in culture.
# (§3) Following 72 hours incubation of the respective cells in 50 μL/well with test compound, 10 μL of WST-1 reagent was added to each well and its contents briefly mixed. The cells were then incubated for 2 hours before absorbance of the dye was measured at 450 nm using a commercial UV/VIS microplate reader (Molecular Devices).
# (§4) The Alamar Blue assay employed the CellTiter-Blue™ Cell Viability Assay from Promega Corporation of Madison, Wis. Further information on assay materials and procedure is provided at www.promega.com. The Alamar Blue-based CellTiter-Blue assay indicates cell viability by measuring the ability of cells in culture to reduce resazurin to resorufin, whereby the intensity of the fluorescence signal is directly proportional to the number of live cells. […]
# SKOV-3 = assay: Cell proliferation assay (WST-1 and/or Alamar Blue), SKOV-3; conditions: Homo sapiens, SK-OV-3; SKOV-3, ovarian adenocarcinoma; 72 hours incubation
# Description: as §1, §2, §3, §4
# MOLM-13 = assay: Cell proliferation assay (WST-1 and/or Alamar Blue), MOLM-13; conditions: MOLM-13, human acute myeloid leukemia; 72 hours incubation
# Description: as §1, §2, §3, §4
# MOLT-4 = assay: Cell proliferation assay (WST-1 and/or Alamar Blue), MOLT-4; conditions: MOLT-4, human T-cell derived lymphoblastic leukemia; 72 hours incubation
# Description: as §1, §2, §3, §4
# HCT-116 = assay: Cell proliferation assay (WST-1 and/or Alamar Blue), HCT-116; conditions: Homo sapiens; HCT-116, colorectal carcinoma; 72 hours incubation
# Description: as §1, §2, §3, §4
# SUP-B15 = assay: Cell proliferation assay (WST-1 and/or Alamar Blue), SUP-B15; conditions: SUP-B15, human B-cell derived acute lymphoblastic leukemia; 72 hours incubation
# Description: as §1, §2, §3, §4
# KASUMI-1 = assay: Cell proliferation assay (WST-1 and/or Alamar Blue), KASUMI-1; conditions: KASUMI-1, human acute myeloid leukemia; 72 hours incubation
# Description: as §1, §2, §3, §4
# CCRF-CEM = assay: Cell proliferation assay (WST-1 and/or Alamar Blue), CCRF-CEM; conditions: human T-cell derived lymphoblastic leukemia, 72 hours incubation
# Description: as §1, §2, §3, §4
# MV4-11 = assay: Cell proliferation assay (WST-1 and/or Alamar Blue), MV4-11; conditions: MV4-11, human acute myelo-monocytic leukemia; 72 hours incubation
# Description: as §1, §2, §3, §4
# OVCAR-5 = assay: Cell proliferation assay (WST-1 and/or Alamar Blue), OVCAR-5; conditions: Homo sapiens; OVCAR-5, ovarian carcinoma; 72 hours incubation
# Description: as §1, §2, §3, §4
# MCF-7 = assay: Cell proliferation assay (WST-1 and/or Alamar Blue), MCF-7; conditions: Homo sapiens, MCF7; MCF-7, epithelial mammary adenocarcinoma; 72 hours incubation
# Description: as §1, §2, §3, §4
# NCI-H460 = assay: Cell proliferation assay (WST-1 and/or Alamar Blue), NCI-H460; conditions: Homo sapiens; NCI-H460, large cell lung carcinoma; 72 hours incubation
# Description: as §1, §2, §3, §4
# C1 = assay: Cell proliferation assay (WST-1 and/or Alamar Blue), C1; conditions: C1, human B-cell derived acute lymphoblastic leukemia; 72 hours incubation
# Description: as §1, §2, §3, §4
# MiaPACA-2 = assay: Cell proliferation assay (WST-1 and/or Alamar Blue), MiaPACA-2; conditions: Homo sapiens, MIA PaCa-2; MiaPACA-2, pancreas carcinoma; 72 hours incubation
# Description: as §1, §2, §3, §4
# ACHN = assay: Cell proliferation assay (WST-1 and/or Alamar Blue), ACHN; conditions: Homo sapiens, renal cell adenocarcinoma, 72 hours incubation
# Description: as §1, §2, §3, §4
# DAOY = assay: Cell proliferation assay (WST-1 and/or Alamar Blue), DAOY; conditions: Homo sapiens, cerebellar medulloblastoma, 72 hours incubation
# Description: as §1, §2, §3, §4
# SK-MEL-5 = assay: Cell proliferation assay (WST-1 and/or Alamar Blue), SK-MEL-5; conditions: Homo sapiens; SK-MEL-5, malignant melanoma; 72 hours incubation
# Description: as §1, §2, §3, §4
# 786-0 = assay: Cell proliferation assay (WST-1 and/or Alamar Blue), 786-0; conditions: Homo sapiens; 786-0, renal cell adenocarcinoma; 72 hours incubation
# Description: as §1, §2, §3, §4
# RS4-11 = assay: Cell proliferation assay (WST-1 and/or Alamar Blue), RS4-11; conditions: RS4-11, human B-cell derived acute lymphoblastic leukemia; 72 hours incubation
# Description: as §1, §2, §3, §4
# PEER = assay: Cell proliferation assay (WST-1 and/or Alamar Blue), PEER; conditions: human T-cell derived lymphoblastic leukemia, 72 hours incubation
# Description: as §1, §2, §3, §4
# DU145 = assay: Cell proliferation assay (WST-1 and/or Alamar Blue), DU145; conditions: Homo sapiens, DU-145; DU145, prostate carcinoma; 72 hours incubation
# Description: as §1, §2, §3, §4
# PC3 = assay: Cell proliferation assay (WST-1 and/or Alamar Blue), PC3; conditions: Homo sapiens, PC-3; PC3, prostate adenocarcinoma; 72 hours incubation
# Description: as §1, §2, §3, §4
# A549 = assay: Cell proliferation assay (WST-1 and/or Alamar Blue), A549; conditions: Homo sapiens; A549, lung carcinoma; 72 hours incubation
# Description: as §1, §2, §3, §4
# PANC-1 = assay: Cell proliferation assay (WST-1 and/or Alamar Blue), PANC-1; conditions: Homo sapiens; PANC-1, pancreas duct epithelial carcinoma; 72 hours incubation
# Description: as §1, §2, §3, §4
# OCI-AML2 = assay: Cell proliferation assay (WST-1 and/or Alamar Blue), OCI-AML2; conditions: OCI-AML2, human acute myeloid leukemia; 72 hours incubation
# Description: as §1, §2, §3, §4
# SKM-1 = assay: Cell proliferation assay (WST-1 and/or Alamar Blue), SKM-1; conditions: SKM-1, human acute myeloid leukemia; 72 hours incubation
# Description: as §1, §2, §3, §4
smiles,measurement,setting,value
CC(C)C(=O)Nc1cccc(C(=O)Nc2nnc(CCc3ccccc3)s2)c1 [Compound A],IC50,MDA-MB453,1.71 µM
same,IC50,SKOV-3,3.5 µM
same,IC50,MOLM-13,0.83 µM
same,IC50,MOLT-4,0.34 µM
same,IC50,HCT-116,17.3 µM
same,IC50,SUP-B15,4.82 µM
same,IC50,KASUMI-1,≥ 20 µM
same,IC50,CCRF-CEM,0.97 µM
same,IC50,MV4-11,0.93 µM
same,IC50,OVCAR-5,6.65 µM
same,IC50,MCF-7,> 20 µM
same,IC50,NCI-H460,2.32 µM
same,IC50,C1,0.57 µM
same,IC50,MiaPACA-2,3.36 µM
same,IC50,ACHN,5 µM
same,IC50,DAOY,2.7 µM
same,IC50,SK-MEL-5,2.39 µM
same,IC50,786-0,4.34 µM
same,IC50,RS4-11,0.13 µM
same,IC50,PEER,> 20 µM
same,IC50,DU145,6.14 µM
same,IC50,PC3,2.35 µM
same,IC50,A549,19.1 µM
same,IC50,PANC-1,> 20 µM
same,IC50,OCI-AML2,0.35 µM
same,IC50,SKM-1,0.6 µM
